Measurements: patent US4288595A, “7-(Substituted)-7H-pyrrolo[3,2-f]quinazoline-1,3-diamines” (priority 1980, dated 1981)
Converted amounts (≈) assume the structure as drawn. Read-outs that look alike come from different tables or passages of the source.

Experiments:
E. coli 9637 = assay: In vitro antibacterial activity, MIC by agar dilution; assay type: cell-based; settings: read-out: MIC, E. coli 9637
Description: (§1) A stock solution or suspension of the test compound at a concentration of 2500 μg/ml. is prepared utilizing a suitable solvent or medium such as aqueous sodium hydroxide, aqueous lactic acid, methyl cellosolve, dimethylsulfoxide, dimethylacetamide, ethylene glycol, dimethylformamide, formamide, propylene glycol, acetone or methanol. Two-fold dilutions are made by adding appropriate amounts of sterile water to the solution or suspension of the test substance. One ml. quantities of each dilution are incorporated into Wellcotest Sensitivity Test Agar fortified with 5% hemolyzed horse blood (9 ml. vol.) in sterile Petri dishes to give plates containing varying concentrations of the test compound. The hardened surfaces of each plate are incubated with the test organism, and the plates are incubated for 18 hours at 35° C.

K. pneumoniae 10031 = assay: as above; assay type: cell-based; settings: read-out: MIC, K. pneumoniae 10031
Description: as §1

P. vulgaris 6896 = assay: as above; assay type: cell-based; settings: Proteus vulgaris, Wellcotest Sensitivity Test Agar, 5% hemolyzed horse blood, 18 hours at 35° C.
Description: as §1

S. aureus 53-180 = assay: as above; assay type: cell-based; settings: Staphylococcus aureus, 53180; Wellcotest Sensitivity Test Agar, 5% hemolyzed horse blood, 18 hours at 35° C.
Description: as §1

S. aureus Smith = assay: as above; assay type: cell-based; settings: Staphylococcus aureus; Wellcotest Sensitivity Test Agar, 5% hemolyzed horse blood, 18 hours at 35° C.
Description: as §1

S. paratyphi 11737 = assay: as above; assay type: cell-based; settings: Salmonella enterica, read-out: MIC, S. paratyphi 11737
Description: as §1

[1] = Blood schizonticidal antimalarial test in mice infected with Plasmodium berghei; settings: mouse, in vivo, sc
Description: (§2) Test animals weigh from 18 to 22 grams but weight variations in any given experimental or control group are confined to 2-3 grams. All animals in any given test are approximately of the same age. Animals on test are housed in metal-topped plastic cages, given a standard laboratory diet and water ad libitum.
(§3) Test animals receive an intraperitoneal injection of 0.5 ml. of 1:100 dilution of heparinized heart's blood with a minimum of 90% parasitized cells (4×10^7 cells), drawn from donor mice infected one week earlier with Plasmodium berghei. The donor strain is maintained by weekly passages in separate groups of mice inoculated with a 0.5 ml. of 1:500 dilution of heparinized heart's blood.
(§4) Test compounds are administered after dissolution or suspension in peanut oil. A single dose is given subcutaneously 72 hours after the mice are infected with Plasmodium berghei. […] Since treatment is withheld for three days to permit the infection to become well established and death occurs in untreated controls within 6-8 days, it is felt that this system presents a candidate compound with the maximum challenge. In order to check factors such as changes in the infectivity of Plasmodium berghei or in the susceptibility of the host or to detect technical errors, a group of infected animals treated with pyrimethamine at dose levels producing definite increases in survival time is included in a positive control in every experiment.
(§5) In each experiment test compounds are administered in graded dosages. […] Deaths prior to the sixth day, when untreated controls begin to die, are regarded as nonparasitic and become the basis for toxicity evaluations. Treated animals are kept under observation for 60 days. Survivors at the end of this period of time are considered as cured. In calculating mean survival time, toxic deaths and 60-day survivors are not included.

[2] = tested on: Plasmodium berghei KBG 173; assay: as above; settings: for ED100 / minimal effective dose: Plasmodium berghei, in Mus musculus, sc; for ED100: read-out: Lowest Dose Curing All Mice; for minimal effective dose: read-out: Min. Curing Dose; for ΔMST (increase in mean survival time of treated animals to untreated controls): s.c.
Description: as §2, §3, §4, §5

N. catarrhalis 8193 = assay: In vitro antibacterial activity, MIC by agar dilution; assay type: cell-based; settings: Wellcotest Sensitivity Test Agar, 5% hemolyzed horse blood, 18 hours at 35° C.
Description: as §1

[3] = Wellcotest Sensitivity Test Agar, 5% hemolyzed horse blood, 18 hours at 35° C.
[4] = Escherichia coli, 9637, Wellcotest Sensitivity Test Agar, 5% hemolyzed horse blood, 18 hours at 35° C.
[5] = Klebsiella pneumoniae, 10031, Wellcotest Sensitivity Test Agar, 5% hemolyzed horse blood, 18 hours at 35° C.

| Structure (SMILES) | MIC (E. coli 9637; Escherichia coli, 9637, 18 h) | MIC (K. pneumoniae 10031; Klebsiella pneumoniae, 10031, 18 h) | MIC (P. vulgaris 6896) | MIC (S. aureus 53-180) | MIC (S. aureus Smith) | MIC (S. paratyphi 11737; [3]) | MTD at 1440 h [1] | ED100 ([2]; 1440 h) | minimal effective dose ([2]; 1440 h) | ΔMST (increase in mean survival time of treated animals to untreated controls) ([2]; dose 5 mg. per kg.) | MIC (E. coli 9637; [4]) | MIC (K. pneumoniae 10031; [5]) | MIC (N. catarrhalis 8193) | ΔMST (increase in mean survival time of treated animals to untreated controls) ([2]; dose 160 mg. per kg.) | ΔMST (increase in mean survival time of treated animals to untreated controls) ([2]; dose 10 mg. per kg.) | MIC (S. paratyphi 11737; 18 h) | ED100 ([2]; 336 h) | minimal effective dose ([2]; 336 h) | ΔMST (increase in mean survival time of treated animals to untreated controls) ([2]; dose 20 mg. per kg.) |
| --- | --- | --- | --- | --- | --- | --- | --- | --- | --- | --- | --- | --- | --- | --- | --- | --- | --- | --- | --- |
| Cc1ccc(C)c(S(=O)(=O)n2ccc3c4c(N)nc(N)nc4ccc32)c1 [Example 2, 7-[(2,5-Dimethylphenyl)Sulfonyl]-7H-Pyrrolo-[3,2-f]Quinazoline-1,3-Diamine] | 31.3 mg/L (≈ 85.2 µM) | 31.3 mg/L (≈ 85.2 µM) | 62.5 mg/L (≈ 170 µM) | 0.976 mg/L (≈ 2.66 µM) | 7.81 mg/L (≈ 21.3 µM) | 31.3 mg/L (≈ 85.2 µM) | 160 mg/kg | 40 mg/kg | 20 mg/kg | 6.6 |  |  |  |  |  |  |  |  |  |
| Nc1nc(N)c2c(ccc3c2ccn3S(=O)(=O)c2ccc([N+](=O)[O-])cc2)n1 [Example 3] |  |  | > 250 mg/L | 3.9 mg/L (≈ 10.1 µM) | 7.81 mg/L (≈ 20.3 µM) | > 250 mg/L |  |  | 640 mg/kg |  | 7.81 mg/L (≈ 20.3 µM) | 3.9 mg/L (≈ 10.1 µM) | 0.12 mg/L (≈ 0.312 µM) | 8.4 |  |  |  |  |  |
| Nc1nc(N)c2c(ccc3c2ccn3S(=O)(=O)c2ccc3ccccc3c2)n1 [Example 4] |  |  | > 250 mg/L | 250 mg/L (≈ 642 µM) | 250 mg/L (≈ 642 µM) | > 250 mg/L |  |  | 20 mg/kg |  | > 250 mg/L | > 250 mg/L | 15.6 mg/L (≈ 40.1 µM) |  | 11.4 |  |  |  |  |
| Cc1ccc(S(=O)(=O)n2ccc3c4c(N)nc(N)nc4ccc32)cc1 [Example 5] |  |  | > 250 mg/L | 62.5 mg/L (≈ 177 µM) | 125 mg/L (≈ 354 µM) | > 250 mg/L | 640 mg/kg | 80 mg/kg | 20 mg/kg |  | > 250 mg/L | 15.6 mg/L (≈ 44.1 µM) | 1.95 mg/L (≈ 5.52 µM) |  | 5.8 |  |  |  |  |
| COc1ccc(S(=O)(=O)n2ccc3c4c(N)nc(N)nc4ccc32)cc1 [Example 6] |  |  | > 250 mg/L | 7.81 mg/L (≈ 21.1 µM) | 15.6 mg/L (≈ 42.2 µM) | > 250 mg/L | 640 mg/kg | 160 mg/kg | 40 mg/kg |  | > 250 mg/L | 3.9 mg/L (≈ 10.6 µM) | 0.122 mg/L (≈ 0.33 µM) |  |  |  |  |  |  |
| Nc1nc(N)c2c(ccc3c2ccn3S(=O)(=O)c2ccc(Cl)c(Cl)c2)n1 [Example 7] |  |  | > 250 mg/L | 3.9 mg/L (≈ 9.55 µM) | 31.3 mg/L (≈ 76.7 µM) |  | 640 mg/kg |  |  |  | > 250 mg/L | 3.13 mg/L (≈ 7.67 µM) | 0.122 mg/L (≈ 0.299 µM) |  |  | > 250 mg/L | 10 mg/kg | 1.25 mg/kg |  |
| Nc1nc(N)c2c(ccc3c2ccn3S(=O)(=O)c2ccc(Cl)cc2)n1 [Example 8] |  |  | > 250 mg/L | 15.6 mg/L (≈ 41.7 µM) | 62.5 mg/L (≈ 167 µM) | > 250 mg/L | 160 mg/kg |  |  |  | > 250 mg/L | 7.81 mg/L (≈ 20.9 µM) | 0.244 mg/L (≈ 0.653 µM) |  |  |  | 40 mg/kg | 40 mg/kg |  |
| Nc1nc(N)c2c(ccc3c2ccn3S(=O)(=O)c2cccc(C(F)(F)F)c2)n1 [Example 9] |  |  | > 250 mg/L | 0.976 mg/L (≈ 2.4 µM) | 3.9 mg/L (≈ 9.57 µM) | > 250 mg/L | 160 mg/kg | 40 mg/kg | 10 mg/kg | 6.6 | > 250 mg/L | 3.9 mg/L (≈ 9.57 µM) |  |  |  |  |  |  |  |
| Nc1nc(N)c2c(ccc3c2ccn3S(=O)(=O)c2ccccc2)n1 [Example 10] |  |  | 125 mg/L (≈ 368 µM) | 0.976 mg/L (≈ 2.88 µM) | 1.95 mg/L (≈ 5.75 µM) | 15.6 mg/L (≈ 46 µM) |  |  | 40 mg/kg |  | 3.9 mg/L (≈ 11.5 µM) | 0.488 mg/L (≈ 1.44 µM) |  |  |  |  |  |  | 7.2 |
| CC(=O)Nc1ccc(S(=O)(=O)n2ccc3c4c(N)nc(N)nc4ccc32)cc1 [Example 11] |  |  | > 250 mg/L | 31.3 mg/L (≈ 79 µM) | 31.3 mg/L (≈ 79 µM) | > 250 mg/L | 320 mg/kg | 20 mg/kg | 10 mg/kg | 9.3 | > 250 mg/L | 7.81 mg/L (≈ 19.7 µM) |  |  |  |  |  |  |  |
| CC(C)(C)c1ccc(S(=O)(=O)n2ccc3c4c(N)nc(N)nc4ccc32)cc1 [Example 12] |  |  | > 250 mg/L | 3.9 mg/L (≈ 9.86 µM) | 7.81 mg/L (≈ 19.7 µM) | > 250 mg/L | 640 mg/kg | 40 mg/kg | 20 mg/kg |  | 250 mg/L (≈ 632 µM) | 1.95 mg/L (≈ 4.93 µM) |  |  | 6.5 |  |  |  |  |
